Data taken from patent US20220281848A1, “PYRAZOLE-SUBSTITUTED PYRROLIDINONES AS HERBICIDES” (FMC Corporation, priority 2019, published 2022).

Tested on: plants
Test: Test D pre-emergence, other plants of Tables D1 and D3
Assay type: in vivo
Conditions: pre-emergence, 100=total damage, 0=no damage
Method in brief: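 Seeds treated with herbicide safener; sown in soil; glasshouse, 16 h light, 65% humidity. Sprayed day 1 (pre) or ~day 12 (post). Spray in 0.2% v/v adjuvant. Scored 0–100 damage: 20 DAA pre, 15 d post.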

Structure (SMILES): CCn1nc([C@H]2CN(C)C(=O)[C@@H]2C(=O)Nc2cccc(F)c2F)c2ccc(F)cc21 [Compound 4]
- damage to plant, BEAVA (rate 15, 20 DAA): 0
- damage to plant, BROTE (rate 15, 20 DAA): 0
- damage to plant, BRSNN (rate 15, 20 DAA): 0
- damage to plant, CHEAL (rate 15, 20 DAA): 0
- damage to plant, GALAP (rate 15, 20 DAA): 0
- damage to plant, HORVW (rate 15, 20 DAA): 0
- damage to plant, KCHSC (rate 15, 20 DAA): 0
- damage to plant, LOLPE (rate 15, 20 DAA): 0
- damage to plant, POAAN (rate 15, 20 DAA): 0
- damage to plant, POLCO (rate 15, 20 DAA): 0
- damage to plant, SINAR (rate 15, 20 DAA): 0
- damage to plant, STEME (rate 15, 20 DAA): 0
- damage to plant, VERPE (rate 15, 20 DAA): 0
- damage to plant, ALOMY (rate 30, 20 DAA): 0
- damage to plant, AVEFA (rate 30, 20 DAA): 0
- damage to plant, BEAVA (rate 30, 20 DAA): 0
- damage to plant, BROTE (rate 30, 20 DAA): 0
- damage to plant, BRSNN (rate 30, 20 DAA): 0
- damage to plant, CHEAL (rate 30, 20 DAA): 0
- damage to plant, GALAP (rate 30, 20 DAA): 0
- damage to plant, HORVW (rate 30, 20 DAA): 0
- damage to plant, KCHSC (rate 30, 20 DAA): 0
- damage to plant, LOLPE (rate 30, 20 DAA): 0
- damage to plant, POAAN (rate 30, 20 DAA): 0
- damage to plant, POLCO (rate 30, 20 DAA): 0
- damage to plant, SINAR (rate 30, 20 DAA): 0
- damage to plant, STEME (rate 30, 20 DAA): 0
- damage to plant, VERPE (rate 30, 20 DAA): 0
- damage to plant, ALOMY (rate 60, 20 DAA): 0
- damage to plant, AVEFA (rate 60, 20 DAA): 0
- damage to plant, BEAVA (rate 60, 20 DAA): 0
- damage to plant, BROTE (rate 60, 20 DAA): 0
- damage to plant, BRSNN (rate 60, 20 DAA): 0
- damage to plant, CHEAL (rate 60, 20 DAA): 0
- damage to plant, GALAP (rate 60, 20 DAA): 0
- damage to plant, HORVW (rate 60, 20 DAA): 0
- damage to plant, KCHSC (rate 60, 20 DAA): 0
- damage to plant, LOLPE (rate 60, 20 DAA): 0
- damage to plant, POAAN (rate 60, 20 DAA): 40
- damage to plant, POLCO (rate 60, 20 DAA): 0
- damage to plant, SINAR (rate 60, 20 DAA): 0
- damage to plant, STEME (rate 60, 20 DAA): 0
- damage to plant, VERPE (rate 60, 20 DAA): 0
- damage to plant, ALOMY (rate 130, 20 DAA): 0
- damage to plant, AVEFA (rate 130, 20 DAA): 0
- damage to plant, BEAVA (rate 130, 20 DAA): 0
- damage to plant, BROTE (rate 130, 20 DAA): 0
- damage to plant, BRSNN (rate 130, 20 DAA): 0
- damage to plant, CHEAL (rate 130, 20 DAA): 0
- damage to plant, GALAP (rate 130, 20 DAA): 0
- damage to plant, HORVW (rate 130, 20 DAA): 0
- damage to plant, KCHSC (rate 130, 20 DAA): 0
- damage to plant, LOLPE (rate 130, 20 DAA): 0
- damage to plant, POAAN (rate 130, 20 DAA): 50
- damage to plant, POLCO (rate 130, 20 DAA): 0
- damage to plant, SINAR (rate 130, 20 DAA): 0
- damage to plant, STEME (rate 130, 20 DAA): 0
- damage to plant, VERPE (rate 130, 20 DAA): 0
- damage to plant, ALOMY (rate 250, 20 DAA): 0
- damage to plant, AVEFA (rate 250, 20 DAA): 0
- damage to plant, BEAVA (rate 250, 20 DAA): 0
- damage to plant, BROTE (rate 250, 20 DAA): 0
- damage to plant, BRSNN (rate 250, 20 DAA): 0
- damage to plant, CHEAL (rate 250, 20 DAA): 0
- damage to plant, GALAP (rate 250, 20 DAA): 0
- damage to plant, HORVW (rate 250, 20 DAA): 0
- damage to plant, KCHSC (rate 250, 20 DAA): 0
- damage to plant, LOLPE (rate 250, 20 DAA): 0
- damage to plant, POAAN (rate 250, 20 DAA): 80
- damage to plant, POLCO (rate 250, 20 DAA): 0
- damage to plant, SINAR (rate 250, 20 DAA): 0
- damage to plant, STEME (rate 250, 20 DAA): 0
- damage to plant, VERPE (rate 250, 20 DAA): 0
- damage to plant, ALOMY (rate 500, 20 DAA): 40
- damage to plant, AVEFA (rate 500, 20 DAA): 10
- damage to plant, BEAVA (rate 500, 20 DAA): 0
- damage to plant, BROTE (rate 500, 20 DAA): 10
- damage to plant, BRSNN (rate 500, 20 DAA): 10
- damage to plant, CHEAL (rate 500, 20 DAA): 0
- damage to plant, GALAP (rate 500, 20 DAA): 0
- damage to plant, HORVW (rate 500, 20 DAA): 20
- damage to plant, KCHSC (rate 500, 20 DAA): 0
- damage to plant, LOLPE (rate 500, 20 DAA): 0
- damage to plant, POAAN (rate 500, 20 DAA): 90
- damage to plant, POLCO (rate 500, 20 DAA): 20
- damage to plant, SINAR (rate 500, 20 DAA): 30
- damage to plant, STEME (rate 500, 20 DAA): 0
- damage to plant, VERPE (rate 500, 20 DAA): 0
